{"source": "patent US20230375530A1", "about": "“HUMAN BLOOD-BRAIN BARRIER MODEL FOR IMMUNOLOGICAL STUDIES” (WISCONSIN ALUMNI RESEARCH FOUNDATION, priority 2020, published 2023)", "key": {"[1]": {"system": "hPSC-derived endothelial progenitors (Passage 1 ECs)", "experiment": "Immunocytochemistry of Passage 1 ECs treated with Wnt ligands, CHIR or conditioned media", "assay_type": "cell-based, human", "experimental": "Collagen IV (Sigma-Aldrich) was dissolved in 0.5 mg/mL acetic acid to a final concentration of 1 mg/mL. Collagen IV-coated plates were prepared by diluting a volume of this stock solution 1:100 in water, adding the resulting solution to tissue culture plates, or #1.5 glass bottom plates (Cellvis, Sunnyvale, CA) for cells intended for confocal imaging (1 mL per well for 6-well plates, 0.5 mL per well for 12-well plates, 0.25 mL per well for 24-well plates), and incubating the plates for 1 h at RT. Collagen IV coating solution was removed and EPCs obtained as described above were suspended in hECSR medium and plated at approximately 3×10^4 cells/cm^2. In some experiments, cells were suspended in NR-CM or Astro-CM. In some experiments, ligands and small molecules were added to hECSR medium: CHIR 99021 (Tocris) was used at 4 μM except where indicated; DMSO (Sigma-Aldrich) was used as a vehicle control for CHIR; Wnt3a (R&D Systems) was used at 20 ng/mL; Wnt7a (Peprotech, Rocky Hill, NJ) was used at 50 ng/mL; Wnt7b (Abnova, Tapei, Taiwan) was used at 50 ng/mL; R-spondin 1 (Rspo1; Peprotech) was used at 50 ng/mL; doxycycline was used at 1, 2, or 4 μg/mL. The hECSR medium or CM, including any ligands or small molecules, was replaced every other day until confluent (typically 6 days). We denote this time point “Passage 1.”\nImmunocytochemistry was performed in 24-well plates. Cells were washed once with 500 μL DPBS and fixed with 500 μL cold (−20° C.) methanol for 5 min, except cells intended for calponin/SM22a and CD31/Ki67 detection, which were fixed with 500 μL of 4% paraformaldehyde for 15 min. Cells were washed three times with 500 μL DPBS and blocked in 150 μL DPBS supplemented with 10% goat serum (Life Technologies) for 1 h at room temperature, except cells intended for calponin/SM22α detection, which were blocked and permeabilized in DPBS supplemented with 3% BSA and 0.1% Triton X-100, or cells intended for CD31/Ki67 detection, which were blocked and permeabilized in DPBS supplemented with 5% non-fat dry milk and 0.4% Triton X-100. Primary antibodies diluted in 150 μL of the above blocking solutions (see Table 6 for antibody information) were added to cells and incubated overnight at 4° C. on a rocking platform. Cells were washed three times with 500 μL DPBS. Secondary antibodies diluted in 150 μL of the above blocking solutions (see Table 6 for antibody information) were added to cells and incubated for 1 h at room temperature on a rocking platform, protected from light. Cells were washed three times with 500 μL DPBS, followed by 5 min incubation with 500 μL DPBS plus 4 μM Hoechst 33342 (Life Technologies). Images were acquired using an Eclipse Ti2-E epifluorescence microscope (Nikon, Tokyo, Japan) with a 20× objective or an A1R-Si+ confocal microscope (Nikon) with a 100× oil objective. Confocal images were acquired with 1 μm slice spacing.\n(§1) Images were analyzed using FIJI (ImageJ) software. For epifluorescence images, 5 fields (20×) were analyzed per well, with 3-4 wells per treatment condition. For quantification of cell number, EC colonies were manually outlined, and the Analyze Particles function was used to estimate the number of nuclei within the EC colonies. Nuclei outside the EC colonies were manually counted. EC purity (% EC) was calculated as the number of nuclei within EC colonies relative to total nuclei. To estimate % GLUT-1^+ ECs, cells within the EC colonies with membrane-localized GLUT-1 immunoreactivity (e.g., arrowheads in FIG. 24B) were manually counted. To estimate % Ki67^+ ECs, cells within the EC colonies with at least one nuclear-localized Ki67 punctum were manually counted. For quantification of fluorescence intensity in epifluorescence images, EC colonies were manually outlined, and the Measure function was used to obtain the mean fluorescence intensity for each image channel (fluorophore). A cell-free area of the plate was similarly quantified for background subtraction. […]"}, "[2]": {"system": "matured hPSC-derived ECs (Passage 5)", "experiment": "CHIR treatment in matured endothelium, immunocytochemistry", "assay_type": "cell-based, human", "experimental": "For extended culture, ECs were selectively dissociated and replated as previously described (Nishihara et al., 2020). Cells were incubated with Accutase until endothelial cells appeared round, typically 2-3 min at 37° C. The plate was tapped to release the ECs while SMLCs remained attached, and the EC-enriched cell suspension transferred to 4× volume of DMEM/F-12 and centrifuged for 5 min, 200×g. Cells were resuspended in hECSR medium and seeded on a new collagen IV-coated plate at approximately 3×10^4 cells/cm^2. hECSR medium was replaced every other day until confluent (typically 6 days). The selective dissociation and seeding described above was repeated, and hECSR medium was again replaced every other day until confluent (typically 6 days). We denote this time point “Passage 3.” In one experiment, these steps were repeated for another two passages. Except where indicated, CHIR 99021 or vehicle (DMSO) was included in the hECSR medium for the entire duration of culture.\nImmunocytochemistry was performed in 24-well plates. […]\nas §1"}, "[3]": {"settings": "4 μM CHIR vs control, Passage 1 ECs"}}, "data": [{"smiles": "Cc1c[nH]c(-c2cnc(NCCNc3ccc(C#N)cn3)nc2-c2ccc(Cl)cc2Cl)n1", "note": "[CHIR, CHIR 99021]", "values": [{"measurement": "caveolin-1 expression vs DMSO", "setting": "[1]; 2 μM CHIR", "value": "did not lead to increased caveolin-1 expression"}, {"measurement": "claudin-5 or GLUT-1 expression vs control", "setting": "[1]; 2 μM CHIR", "value": "did not elevate claudin-5 or GLUT-1 expression"}, {"measurement": "EC number and EC purity", "setting": "[1]; 2 μM CHIR vs 4 μM CHIR", "value": "less effective in increasing EC number and EC purity than 4 μM CHIR"}, {"measurement": "increase in GLUT-1 abundance", "setting": "[1]; [3]", "value": "~30", "unit": "fold"}, {"measurement": "increase in average claudin-5 abundance", "setting": "[1]; [3]", "value": "approximately 1.5 fold"}, {"measurement": "increase in caveolin-1", "setting": "[1]; [3]", "value": 4, "unit": "fold"}, {"measurement": "ECs with induced GLUT-1 expression", "setting": "[1]; 4 μM CHIR, Passage 1 ECs, IMR90-4", "value": "approximately 90%"}, {"measurement": "EC number, EC purity, claudin-5 expression", "setting": "[1]; 6 μM CHIR vs 4 μM", "value": "did not improve EC number, EC purity, or claudin-5 expression"}, {"measurement": "GLUT-1 abundance", "setting": "[1]; 6 μM CHIR vs 4 μM", "value": "further increased GLUT-1 abundance"}, {"measurement": "caveolin-1 abundance", "setting": "[1]; 6 μM CHIR vs 4 μM", "value": "further increased caveolin-1 abundance"}, {"measurement": "increases in GLUT-1 abundance", "setting": "[1]; CHIR treatment initiated immediately after MACS", "value": "10- to 40 fold"}, {"measurement": "EC purity (proportion of ECs compared to SMLCs)", "setting": "[1]; Passage 1 cultures, 6 days treatment", "value": "increasing EC purity to a level similar to that achieved with Wnt7a"}, {"measurement": "EC purity, EC number, caveolin-1 and GLUT-1 expression", "setting": "[1]; additional hPSC line (WTC11)", "value": "conserved"}, {"measurement": "claudin-5 upregulation", "setting": "[1]; additional hPSC line (WTC11)", "value": "not apparent"}, {"measurement": "reduction of PLVAP abundance", "setting": "[1]; confocal microscopy, Passage 1 ECs, CHIR vs DMSO", "value": "approximately 20%"}, {"measurement": "increase in GLUT-1 abundance", "setting": "[2]; CHIR for 6 days after 4 passages, vs DMSO", "value": "approximately 1.5 fold"}, {"measurement": "EC number", "setting": "[2]; CHIR in matured ECs", "value": "slight decrease in EC number"}, {"measurement": "claudin-5 expression", "setting": "[2]; CHIR in matured ECs", "value": "variable effects"}]}]}
